# Results from patent publication US20070056052A1, “Methods of generating knock-out rodents” (priority 2001, published 2007).
# How the values were obtained:
# mutated HEXA allele mRNA = conditions: increased from undetectable; cited from earlier work
# NMD = experiment: Inhibition of NMD with a protein synthesis inhibitor; conditions: preliminary
# Text: The major drawbacks to using the RNA-based cDNA assay are that the gene-specific RNA may not be produced in an easily collectable tissue and mutant RNA may be lost to a great extent by NMD. […] NMD can be minimized by pre-treating collected cells, such as white blood cells, with a protein synthesis inhibitor before RNA collection. This approach has been successful for the yeast gap repair p53 assay (Flaman et al., 1995; Andreutti-Zaugg et al., 1997) and may be extrapolated to in vivo studies by the administration of a protein synthesis inhibitor to rat pups prior to tissue collection. […] The problem of a gene-specific RNA not being produced in tail tissue may be reduced by extending the range of biopsy tissues collected from viable rats, e.g., WBC, liver, skin, etc. In the future as it becomes possible to cryopreserve rat sperm from F1 male rats of mutagenized fathers, their sperm can be frozen and a wide variety of organ-specific RNAs could also be collected and stored, along with DNA from tails or spleens. DNAs or RNAs from a large number of rats could be screened and the appropriate frozen sperm used for the mutant rat recovery via in vitro fertilization and implantation. […]
# CYP1A1 RNA mutant allele = conditions: cell line with a CYP1A1 mutation; cited from earlier work
# NMD of hMSH2 and hMLH1 = conditions: treatment of freshly drawn whole blood; cited from earlier work
# [1] = even at high doses; cited from earlier work
compound,measurement,setting,value
C[C@@H]1C[C@@H]([C@H](O)CC2CC(=O)NC(=O)C2)C(=O)[C@@H](C)C1 [cyclohexamide],mRNA levels of the mutated HEXA allele,mutated HEXA allele mRNA,40 % of the wild-type allele
CC[C@H]1CN2CCc3cc(OC)c(OC)cc3[C@@H]2C[C@@H]1C[C@H]1NCCc2cc(OC)c(OC)cc21 [emetine],inhibition of NMD,NMD,preliminary success in inhibiting NMD
COc1ccc(C[C@H](N)C(=O)N[C@H]2[C@@H](O)[C@H](n3cnc4c(N(C)C)ncnc43)O[C@@H]2CO)cc1 [puromycin],steady-state level of CYP1A1 RNA mutant allele,CYP1A1 RNA mutant allele,fully restored
same,NMD of hMSH2 and hMLH1,NMD of hMSH2 and hMLH1,suppressed
Gentamicin,short-term toxicity profile,[1],very low short-term toxicity profile even at high doses
